The source of these data is patent US8901118B2, “Compounds and methods for kinase modulation, and indications therefor” (Plexxikon Inc., priority 2010, dated 2014).

The target in one assay is T1, BCR-FMS BaF3 cells (Homo sapiens, UniProt P07333).
T1 construct: fused on or other part: P11274 (Breakpoint cluster region protein)
T1 sequence (P07333 582-910): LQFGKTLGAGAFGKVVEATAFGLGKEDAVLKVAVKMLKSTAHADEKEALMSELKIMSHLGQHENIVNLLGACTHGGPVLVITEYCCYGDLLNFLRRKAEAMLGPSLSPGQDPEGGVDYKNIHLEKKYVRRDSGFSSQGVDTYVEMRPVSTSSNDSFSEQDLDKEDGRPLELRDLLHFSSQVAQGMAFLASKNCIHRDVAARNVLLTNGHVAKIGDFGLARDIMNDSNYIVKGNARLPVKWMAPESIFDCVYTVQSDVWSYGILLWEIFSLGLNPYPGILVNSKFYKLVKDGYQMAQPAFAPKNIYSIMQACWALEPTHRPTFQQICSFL
Nature of the assay: BaF3 BCR-FMS cell proliferation assay (ATPlite). The assay is classed as cell-based. To be noted: read-out: Inhibition of Cell Proliferation IC50, BCR/BaF3 Fms. As for the experimental part: Compounds are assessed in a variety of cell based assays. For example BaF3 cells engineered with any of BCR-FMS, BCR-KIT, BCR-FLT3, BCR-NTRK1, BCR-NTRK2, and BCR-NTRK3, are used in cell proliferation assays to assess inhibitory activity of Fms, Kit, Flt-3, TrkA, TrkB, and TrkC, respectively. An MV-4-11 (leukemia) cell proliferation assay is used to assess inhibitory activity in Flt-3, and SKNSH (human neuroblastoma) cell proliferation assay is used to assess efficacy of Fms/Trk inhibitors. Additional cells may be assayed similarly to assess the efficacy of Fms/Trk inhibitors, such as MiaPaCa (human pancreatic cancer) and Capan-1 (human pancreatic carcinoma) cells. Reagent and assay conditions are as follows: • BaF3 cells: • Maintained in RPMI containing 10% FBS, 1% PenStrep, 1% NEAA, and 1% L-Glutamine, supplemented with 1 mg/mL G418 and 5% WEHI-CM (or recombinant murine IL-3). • Confluent cells are split 1:50 to 1:100 every 3-4 days. • MV-4-11 cells: • Maintained in Iscove's Modified Dulbecco's Medium containing 10% FBS. • Confluent cells are split 1:4 every 3-4 days. • SKNSH cells: RPMI containing 10% FBS. On day 1, cells are counted, then centrifuged in a conical tube for 5 minutes at 1000 rpm. The supernatant is removed and cells are re-suspended as follows: • BaF3: resuspend in growth media +1 mg/mL G418 (without WEHFIL-3) to 2×10^5 cells/mL. • MV-4-11: resuspend in growth media to 5×10^5 cells/mL. • SKNSH: resuspend in growth media to 2×10^4 cells/mL. The cells are plated (50 μL, 150 μL for SKNSH cells) in each well of a 96-well dish (Corning 3610) and incubated at 37° C. in 5% CO2 overnight, cells plated to a final concentration of cells as follows: • BaF3: 10,000 cells per well. • MV-4-11: 25,000 cells per well. • SKNSH: 3,000 cells per well. On day 2, compound at a maximum concentration of 5 mM is serially diluted 1:3 for a total of 8 point titration with DMSO as a control. A 1 μL aliquot of each dilution point is added to 249 μL growth media and 50 μL is added to a well containing cells, providing 10 μM compound for the maximum concentration point. The cells are incubated for 3 days at 37° C. in 5% CO2. For SKNSH cells, a 0.75 μL aliquot of appropriate dilution in DMSO is added to 150 μL of cells. On day 5, ATPlite 1 step Luminescence Assay System (Perkin Elmer #6016739) is brought to room temperature along with the cell cultures. ATPlite is added to each well as follows: • BaF3: 25 μL per well. • MV-4-11: 40 μL per well. • SKNSH: 20 μL per well. The cells are incubated at room temperature for 10 minutes, then luminescence is read on Safire reader. The measured luminescence correlates directly with cell number, such that the reading as a function of compound concentration is used to determine the IC50 value.
It is understood that the results of these assays may vary as assay conditions are varied. Inhibition levels determined under the conditions described herein represent a relative activity for the compounds tested under the specific conditions employed. The cell based assays are likely to show variability due to the complexity of the system and the sensitivity thereof to any changes in the assay conditions. […] Results for compounds that are tested and show substantially no inhibition below the highest tested concentration are represented as “-” in the tables below. In some instances, the compounds were not tested in all of the assays, or assay results were not valid, as indicated by NA in the tables below.
For orientation: In ATP-based viability assays light output follows the ATP content of the culture.

The next assay has as its target Fms kinase (Homo sapiens, UniProt P07333). Nature of the assay: Fms kinase biochemical activity assay (AlphaScreen, biotin-(E4Y)10 phosphorylation). To be noted: 100 μM ATP; read-out: Biochemical Inhibition IC50 Fms. As for the experimental part:
In one assay the biochemical activity IC50 values are determined with respect to inhibition of Fms kinase activity, where inhibition of phosphorylation of a peptide substrate is measured as a function of compound concentration. Compounds to be tested, dissolved in DMSO (1 μL), are added to a white 384-well plate (Costar #3705). Working stocks of Fms kinase (Invitrogen #PV3249), biotin-(E4Y)10 substrate (Upstate Biotech, Cat#12-440), and ATP (Sigma, Cat#A-3377) are prepared in 25 mM Hepes pH 7.5, 0.5 mM MgCl2, 2 mM MnCl2, 2 mM DTT, 0.01% BSA, and 0.01% Tween-20. All components are added to the 384-well plate for a final concentration of 1 ng/well Fms, 30 nM biotin-(E4Y)10 (Upstate Biotechnology) and 100 μM ATP in a volume of 20 μL. Each sample is at 5% DMSO. The plate is then incubated for 20 minutes at 30° C. Just before use, working stocks of donor and acceptor beads from the AlphaScreen PY20 Detection Kit (PerkinElmer, Cat#676601M) are prepared in 25 mM Hepes pH 7.5, pH 7.4, 100 mM EDTA, 0.01% BSA. To stop the reaction, the plate is uncovered in the dark and 5 μL of Donor Beads solution (Streptavidin beads) is added to each well. The plate is incubated at room temperature for 20 minutes. Five microliters of Acceptor Beads solution (PY20 coated beads) are then added to each well. The final concentration of each bead is 10 μg/mL. The plates are incubated at room temperature for 60 minutes. Fluorescence signal is recorded on the Envision reader. Phosphorylated substrate results in binding of the PY20 antibody and association of the donor and acceptor beads such that signal correlates with kinase activity. The signal vs. compound concentration is used to determine the IC50.
A general note: In Alpha technology, singlet oxygen from a donor bead excites a nearby acceptor bead.

Chain of Fms kinase (P07333 20-972): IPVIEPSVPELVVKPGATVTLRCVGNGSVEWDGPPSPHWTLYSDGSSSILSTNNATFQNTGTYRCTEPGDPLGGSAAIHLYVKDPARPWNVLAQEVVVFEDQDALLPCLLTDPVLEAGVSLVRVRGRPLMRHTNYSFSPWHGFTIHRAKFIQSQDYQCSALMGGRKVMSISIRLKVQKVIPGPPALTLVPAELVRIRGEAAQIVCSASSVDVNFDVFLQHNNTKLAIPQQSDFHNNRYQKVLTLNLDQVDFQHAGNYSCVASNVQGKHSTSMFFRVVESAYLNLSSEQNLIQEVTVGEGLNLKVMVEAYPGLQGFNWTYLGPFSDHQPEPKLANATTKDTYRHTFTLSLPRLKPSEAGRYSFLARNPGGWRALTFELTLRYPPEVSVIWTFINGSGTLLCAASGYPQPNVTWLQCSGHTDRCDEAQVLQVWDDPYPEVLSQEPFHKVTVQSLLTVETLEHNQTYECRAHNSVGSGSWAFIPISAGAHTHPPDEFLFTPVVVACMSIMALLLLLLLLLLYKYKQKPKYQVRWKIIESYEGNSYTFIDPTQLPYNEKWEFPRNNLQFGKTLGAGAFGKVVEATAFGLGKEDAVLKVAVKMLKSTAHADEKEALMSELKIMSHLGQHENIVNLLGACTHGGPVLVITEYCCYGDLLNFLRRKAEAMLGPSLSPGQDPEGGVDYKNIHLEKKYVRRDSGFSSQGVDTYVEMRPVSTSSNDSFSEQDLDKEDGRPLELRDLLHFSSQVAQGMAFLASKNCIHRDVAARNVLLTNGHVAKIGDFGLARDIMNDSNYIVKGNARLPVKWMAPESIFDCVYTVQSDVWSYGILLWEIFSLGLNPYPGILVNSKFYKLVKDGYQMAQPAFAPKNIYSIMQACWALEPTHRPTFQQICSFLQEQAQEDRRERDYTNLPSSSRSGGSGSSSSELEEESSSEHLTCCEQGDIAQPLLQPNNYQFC

As for `Clc1ccc(Nc2ncc(Cc3c[nH]c4ncc(Cl)cc34)cn2)cc1` [Compound P-3011, (4-Chloro-phenyl)-[5-(5-chloro-1H-pyrrolo[2,3-b]pyridin-3-ylmethyl)-pyrimidin-2-yl]-amine], the IC50 is less than 100 nM at BCR-FMS BaF3 cells and less than 10 nM at Fms kinase.
As to `O=C(c1ccc(Nc2ccc(C3CC3)nc2)nc1F)c1c[nH]c2ncnc(NC3CC3)c12` [Compound P-4093, [4-(cyclopropylamino)-7H-pyrrolo[2,3-d]pyrimidin-5-yl]-[6-[(6-cyclopropyl-3-pyridyl)amino]-2-fluoro-3-pyridyl]methanone], the IC50 at BCR-FMS BaF3 cells and at Fms kinase was less than 10 nM throughout.
Regarding `COc1ccc(Nc2ccc(C(=O)c3c[nH]c4ncnc(NC5CCCC5)c34)c(F)n2)cn1` [Compound P-4075, [4-(cyclopentylamino)-7H-pyrrolo[2,3-d]pyrimidin-5-yl]-[2-fluoro-6-[(6-methoxy-3-pyridyl)amino]-3-pyridyl]methanone], the IC50 at BCR-FMS BaF3 cells and at Fms kinase was less than 10 nM each time.
For the compound `COc1ccc(Nc2ccc(C(=O)c3c[nH]c4ncnc(NC5CCCCC5)c34)c(F)n2)cn1` [Compound P-4082, [4-(cyclohexylamino)-7H-pyrrolo[2,3-d]pyrimidin-5-yl]-[2-fluoro-6-[(6-methoxy-3-pyridyl)amino]-3-pyridyl]methanone], the IC50 at BCR-FMS BaF3 cells was less than 10 nM; at Fms kinase, less than 100 nM.
For `CCc1ccc(Nc2ccc(C(=O)c3c[nH]c4ncnc(NCC(C)C)c34)c(F)n2)cn1` [Compound P-4121, [6-[(6-ethyl-3-pyridyl)amino]-2-fluoro-3-pyridyl]-[4-(isobutylamino)-7H-pyrrolo[2,3-d]pyrimidin-5-yl]methanone], the figures for the IC50 at BCR-FMS BaF3 cells and on Fms kinase were less than 10 nM and less than 100 nM, respectively.
On the same counts, the results for `Clc1cnc2[nH]cc(Cc3cnc(Nc4ccccc4Cl)nc3)c2c1` [Compound P-3015, (2-Chloro-phenyl)-[5-(5-chloro-1H-pyrrolo[2,3-b]pyridin-3-ylmethyl)-pyrimidin-2-yl]-amine] are less than 1000 nM and less than 10 nM.
For `CCCNc1ncnc2[nH]cc(C(=O)c3ccc(Nc4ccc(CC)nc4)nc3F)c12` [Compound P-4122, [6-[(6-ethyl-3-pyridyl)amino]-2-fluoro-3-pyridyl]-[4-(propylamino)-7H-pyrrolo[2,3-d]pyrimidin-5-yl]methanone], the IC50 at BCR-FMS BaF3 cells and at Fms kinase was less than 10 nM each time.
Consider `O=C(c1ccc(NC2CCC(F)(F)CC2)nc1)c1c[nH]c2ncnc(NC3CC3)c12` [Compound P-4088, [4-(cyclopropylamino)-7H-pyrrolo[2,3-d]pyrimidin-5-yl]-[6-[(4,4-difluorocyclohexyl)amino]-3-pyridyl]methanone], for which the IC50 on BCR-FMS BaF3 cells and on Fms kinase was less than 100 nM each time.
`COc1ccc(Nc2ccc(C(=O)c3c[nH]c4ncnc(N[C@@H](C)c5ccc(F)cc5)c34)c(F)n2)cn1` [Compound P-4072, [2-fluoro-6-[(6-methoxy-3-pyridyl)amino]-3-pyridyl]-[4-[[(1S)-1-(4-fluorophenyl)ethyl]amino]-7H-pyrrolo[2,3-d]pyrimidin-5-yl]methanone]: the IC50 on BCR-FMS BaF3 cells and on Fms kinase was less than 100 nM throughout.
On to `CNc1ncnc2[nH]cc(C(=O)c3ccc(Nc4ccc(OC)nc4)nc3F)c12` [Compound P-4083, [2-fluoro-6-[(6-methoxy-3-pyridyl)amino]-3-pyridyl]-[4-(methylamino)-7H-pyrrolo[2,3-d]pyrimidin-5-yl]methanone], for which the IC50 is less than 100 nM at BCR-FMS BaF3 cells and less than 10 nM on Fms kinase.
As for `CC1CCC(Nc2ncc(Cc3c[nH]c4ncc(Cl)cc34)cn2)CC1` (centres unmarked) [Compound P-3009, [5-(5-Chloro-1H-pyrrolo[2,3-b]pyridin-3-ylmethyl)-pyrimidin-2-yl]-(4-methyl-cyclohexyl)-amine], the figures for the IC50 on BCR-FMS BaF3 cells and at Fms kinase were less than 1000 nM and less than 100 nM, respectively.
On the same counts, the results for `COc1ccc(Nc2ccc(C(=O)c3c[nH]c4ncnc(N5CCOCC5)c34)c(F)n2)cn1` [Compound P-4070, [2-fluoro-6-[(6-methoxy-3-pyridyl)amino]-3-pyridyl]-(4-morpholino-7H-pyrrolo[2,3-d]pyrimidin-5-yl)methanone] are more than 1000 nM and more than 1000 nM.
For `CCc1ccc(Nc2ccc(C(=O)c3c[nH]c4ncnc(NC5CC5)c34)c(F)n2)cn1` [Compound P-4125, [4-(cyclopropylamino)-7H-pyrrolo[2,3-d]pyrimidin-5-yl]-[6-[(6-ethyl-3-pyridyl)amino]-2-fluoro-3-pyridyl]methanone] the same measures were less than 10 nM and less than 100 nM.
As to `Fc1nc(NC2CCC(F)(F)CC2)ccc1Cc1c[nH]c2ncc(Cl)cc12` [Compound P-3013, [5-(5-Chloro-1H-pyrrolo[2,3-b]pyridin-3-ylmethyl)-6-fluoro-pyridin-2-yl]-(4,4-difluoro-cyclohexyl)-amine], the IC50 was less than 100 nM on BCR-FMS BaF3 cells and less than 10 nM on Fms kinase.
For `Fc1ccccc1Nc1ncc(Cc2c[nH]c3ncc(Cl)cc23)cn1` [Compound P-3014, [5-(5-Chloro-1H-pyrrolo[2,3-b]pyridin-3-ylmethyl)-pyrimidin-2-yl]-(2-fluoro-phenyl)-amine] the same measures were less than 100 nM and less than 10 nM.
For `CCc1ccc(Nc2ccc(C(=O)c3c[nH]c4ncnc(NCC(C)(C)O)c34)c(F)n2)cn1` [Compound P-4064, [6-[(6-ethyl-3-pyridyl)amino]-2-fluoro-3-pyridyl]-[4-[(2-hydroxy-2-methyl-propyl)amino]-7H-pyrrolo[2,3-d]pyrimidin-5-yl]methanone] the same measures were less than 100 nM and less than 10 nM.
